Results published in a melting point compilation (Tetko et al.; mined from patent text by program, amines drawn as free bases though some values may be those of a salt).

First: CCNc1nc(C)nc(O)c1C(C)C
Second: CC(=O)OCc1cc(C)cc(Oc2nc(Cl)nc(Cl)c2C(C)C)c1
The melting point of the first is higher: 180 °C for the first, 76 to 77 °C for the second.

Compared with `O=C1OC[C@@H](c2ccccc2)N[C@H]1Cc1ccccc1`, `CN1C(=O)C(=C2CCN(Cc3ccccc3)CC2)c2ccccc21` is higher in melting point: 75 to 76 °C for the first, 101 to 102 °C for the second.

First: OCc1ccc(OCc2ccccc2)cn1
Second: COc1ccc2c(C=O)c(OCc3ccccc3)ccc2c1
The melting point of the first is lower: 66 to 68 °C for the first, 115 to 117 °C for the second.

First: O=c1[nH]c2cc(Cl)cc(Cl)c2c(=O)n1Cc1ccc(I)cc1
Second: Cc1coc(-c2ccccc2)c(-c2ccc(Cl)c(Cl)c2)c1=O
The melting point of the first is higher: 314 to 316 °C for the first, 104 °C for the second.

First: Cc1cc(-c2n[nH]c(-c3ccncc3)n2)ccn1
Second: CCOc1ccc(-c2nc3n(c2-c2ccncc2)CCC3)cc1
The melting point of the first is higher: 245 to 248 °C for the first, 133 to 135 °C for the second.

First: C#CCOCc1cc(-c2ccc(C(F)(F)F)n(C)c2=O)c(F)cc1Cl
Second: C#CCOc1cc(-c2ncnc(C(F)(F)F)c2Cl)c(F)cc1Cl
The melting point of the first is lower: 99 to 101 °C for the first, 112 to 113 °C for the second.

Compared with `Cc1nc(OC(C)C(=O)O)nn1-c1cccc(Cl)c1` (configuration not stated), `CC(C)n1c(=O)[nH]c2c(C(N)=O)nc(-c3cccc(O)c3)nc21` is higher in melting point: 101 to 103 °C for the first, 338 to 342 °C for the second.

First: CCc1nnc2c(NC(C)C)nc3ccccc3n12
Second: CCc1ccccc1N1CCN(C(=O)Nc2nc3ccccc3nc2OC)CC1
The melting point of the first is higher: 222 to 224 °C for the first, 191 to 193 °C for the second.

First: O=c1c(Br)c[nH]c2c([N+](=O)[O-])cccc12
Second: O=C(N[C@@H](Cc1c[nH]c2ccccc12)C(=O)O)c1ccc([N+](=O)[O-])cc1
The melting point of the first is higher: 279 to 282 °C for the first, 115 to 117 °C for the second.

First: CN(C(N)=O)c1ccccc1S
Second: CCC(C(=O)N(C)C)n1ccc(-c2ccccc2)n1 (configuration not stated)
The melting point of the first is lower: 73 to 75 °C for the first, 101 to 103 °C for the second.

First: CC(=O)Nc1ccc(OC(=O)c2ccc(COC(=O)OC(C)O[N+](=O)[O-])cc2)cc1 (configuration not stated)
Second: COc1ccc(COC(=O)c2cc([N+](=O)[O-])c3ccccc3c2O)cc1
The melting point of the first is lower: 149 to 152 °C for the first, 163 to 164 °C for the second.

Compared with `COc1ccccc1NS(=O)(=O)c1ccc(COC2CCCCO2)cc1` (configuration not stated), `O=S(=O)(NC1Cc2ccc(CCO)cc2C1)c1ccc(Cl)cc1` (configuration not stated) is higher in melting point: 67 to 70 °C for the first, 71 to 76 °C for the second.

First: CCOC(=O)C1=Cc2cc(OCC(=O)c3ccc(Br)cc3)ccc2OC1C(F)(F)F (configuration not stated)
Second: Cc1ccc(NC(=O)c2ccc(CN3CCN(C)CC3)c(C(F)(F)F)c2)cc1NC(=O)N(C)c1cc(N)ncn1
The melting point of the first is lower: 130 to 132 °C for the first, 192 to 193 °C for the second.

First: CN1Cc2c(C(N)=O)ncn2-c2cccc(Cl)c2C1=O
Second: O=C(Cc1ccccc1Cl)N1CCCc2ncc3ccccc3c21
The melting point of the first is higher: > 250 °C for the first, 176 to 178 °C for the second.

First: O=c1[nH]nc(-c2cc(C(F)(F)F)cc(C(F)(F)F)c2)n1-c1cc(Cl)ccc1O
Second: O=c1ccn(-c2cccc(C(F)(F)F)c2)nc1-c1ccnn1-c1ccc(Cl)cc1
The melting point of the first is higher: 275 to 278 °C for the first, 166 to 167 °C for the second.

First: CNS(=O)(=O)c1cc(C(=O)NNC(=O)c2occ(-c3ccccc3)c2-c2ccccc2)ccc1OC
Second: Cc1nc(NC(=O)c2ccccc2)sc1C(=O)NCc1ccccc1C(F)(F)F
The melting point of the first is higher: 239 to 241 °C for the first, 198 to 199 °C for the second.

First: COCOC(C(Cc1ccccc1)NC(=O)[C@@H](NC(=O)OCc1ccccc1)C(C)C)C(Cc1ccccc1)NC(=O)[C@@H](NC(=O)OCc1ccccc1)C(C)C (some centres not stated)
Second: OCc1ccc(-c2c3ccccc3nn2Cc2ccccc2)cc1
The melting point of the first is higher: 197 to 198 °C for the first, 148 to 149 °C for the second.

First: CCC(=Nc1ccc2c(c1)C(=O)c1ccc(N=C(CC)N3CCCCC3)cc1C2=O)N1CCCCC1
Second: CCc1ccc2c(c1)C1(CCN(C(=O)Nc3cnc(-c4ccccc4)cn3)CC1)OC2=O
The melting point of the first is higher: 183 to 185 °C for the first, 176 to 178 °C for the second.

First: O=C1Cc2c(cccc2C(=O)O)Sc2ccc(F)cc21
Second: O=C(O)COc1ccc2c(c1)Nc1ccccc1S2
The melting point of the first is higher: 242 to 244 °C for the first, 180 to 181 °C for the second.

First: CCCc1c(O)c(O)c(C(=O)O)c2cc(Cc3ccccc3)c(C)cc12
Second: Cc1ccc(Br)c(Cl)c1NS(=O)(=O)c1ccccc1C(=O)O
The melting point of the first is lower: 183 to 184 °C for the first, 238 to 242 °C for the second.

First: CS(=O)(=O)c1ccc(Oc2cc(OCc3cccc(Cl)n3)c3[nH]c(C(N)=O)cc3c2)cc1
Second: CS(=O)(=O)c1ccc(-c2cnn(CC=C(Cl)Cl)c(=O)c2-c2ccc(F)cc2)cc1
The melting point of the first is higher: 259 to 260 °C for the first, 150 to 152 °C for the second.

First: OC(Cn1cncn1)(c1ccc(F)cc1F)C(F)n1cncn1 (configuration not stated)
Second: N#Cc1ccc(F)cc1-c1ccc(C(F)(F)F)cc1
The melting point of the first is higher: 117 to 123 °C for the first, 106 to 107 °C for the second.

Compared with `COc1c(C)cnc(CSc2nc3cc(OC(F)(F)F)ccc3[nH]2)c1C`, `COc1ccnc(C(C)S(=O)c2nc3cc(OC(F)(F)C(F)F)ccc3[nH]2)c1` (configuration not stated) is higher in melting point: 152 to 154 °C for the first, 156 to 157 °C for the second.

First: NC(=O)c1ccc(-c2nn(Cc3ccccc3)c3ccccc23)o1
Second: COC[C@](C#N)(C(=O)OC)[C@H](c1ccccc1OC)c1cccc2ccccc12
The melting point of the first is higher: 259 °C for the first, 148 to 151 °C for the second.

First: COc1ccc(N2CCN(c3ccc(NC(=O)Oc4ccccc4)nc3)CC2)cc1
Second: CN1CCN(c2ccc(/C=C/C(=O)CC(=O)/C=C/c3ccc4cc[nH]c4c3)cc2)CC1
The melting point of the first is higher: 130 to 132 °C for the first, 65 to 77 °C for the second.

First: O=C(Nc1ccc(F)cc1)NS(=O)(=O)C1CCCC1
Second: O=C(Nc1ccc2c(c1)CCC2)C(=O)N1CCC(Cc2ccc(F)cc2)CC1
The melting point of the first is higher: 155 to 157 °C for the first, 150 to 152 °C for the second.

First: CCOc1cc(C(=CC#N)c2ccc(OC)c(-n3cccc3)c2)ccc1OC
Second: CCOc1ccc(CCCOc2c(CC(=O)O)cccc2OC)c(Oc2ccc(Cl)cc2Cl)n1
The melting point of the first is higher: 109 to 111 °C for the first, 89 to 91 °C for the second.

First: CS(=O)(=O)c1c(C(=O)c2cnoc2C2CC2)ccc(F)c1F
Second: NCc1cccc2c1CN(c1nc3c(cc1F)c(=O)c(C(=O)O)cn3C1CC1)C2
The melting point of the first is lower: 115 to 118 °C for the first, > 300 °C for the second.

First: O=C(O)c1cc(NCCc2ccc([N+](=O)[O-])cc2)ccc1O
Second: O=C(Cc1cccc(Br)c1)Nc1cccc(C(=O)NCCO)c1
The melting point of the first is higher: 234 to 236 °C for the first, 202 °C for the second.

First: O=C(O)Cc1ccc(NCCNC(=O)C2Cc3ccccc3N2S(=O)(=O)c2ccc(-c3cc(C(F)(F)F)ccc3Cl)cc2)cc1 (configuration not stated)
Second: CNC(=O)[C@@H]1C[C@@H](Oc2ccccc2)CN1S(=O)(=O)c1ccc(Cl)c(COc2cccc3c(-n4ccnc4)cc(C)nc23)c1Cl
The melting point of the first is higher: 110 to 118 °C for the first, 97 °C for the second.

Compared with `CC(Br)C(=O)c1ccc(O)cc1` (configuration not stated), `O=C(O)CCCC(O)c1ccc(Cl)cc1` (configuration not stated) is lower in melting point: 95 to 97 °C for the first, 85 to 87 °C for the second.

First: CC(C)(CO)NS(=O)(=O)c1cc(NC(=O)c2cnn3c(C(F)(F)F)cc(-c4ccc(Cl)cc4)nc23)c(Cl)s1
Second: CSC[C@H](C)NC(=O)c1c(OC(F)(F)F)cccc1C(=O)Nc1ccc(Cn2nc(C(F)(F)F)cc2C(F)(F)F)cc1C
The melting point of the first is higher: 272 °C for the first, 158 to 160 °C for the second.

First: CC1(C)OC(=O)Nc2ccc(-c3cccc(C#C[Si](C)(C)C)c3)cc21
Second: C[C@@H]1NC(=O)O[C@H]1c1ccc(C(C)(C)C)cc1
The melting point of the first is higher: 240 to 242 °C for the first, 199 to 200 °C for the second.

Compared with `CSc1nnc(-c2ccc(-c3ccccc3)cc2)n1-c1ccccc1F`, `CCOC(=O)COc1ccccc1C(=O)Nc1ccccc1Sc1ccc(-c2nnn[nH]2)cc1` is lower in melting point: 199 to 200 °C for the first, 155 to 157 °C for the second.

First: Clc1ccc(C2=NOCCS2)cc1
Second: O=c1cc(-c2cccc(Cl)c2)c2cc(C(c3ccc(Cl)cc3)n3ccnc3)cc3c2n1CCC3 (configuration not stated)
The melting point of the first is lower: 80.5 to 81.5 °C for the first, 195 °C for the second.

First: ClCCCCCOc1ccc(C2=C(c3ccccc3)CCCc3cc(OC4CCCCO4)ccc32)cc1 (configuration not stated)
Second: CC(=O)Oc1cc2c(cc1C(C)(C)C)OC(C)(CCOc1ccc(CC3SC(=N)NC3=O)cc1)CC2 (configuration not stated)
The melting point of the first is lower: 99 to 101 °C for the first, 175 to 178 °C for the second.

Compared with `Brc1cncc2nc(SCc3ccccc3)nn12`, `CSc1cnc2cc(-c3ccccc3)sc2c1O` is higher in melting point: 94 to 95 °C for the first, > 325 °C for the second.

First: COC(CNC(=O)c1ccc(N2CCN(C(=O)c3ccccc3C(F)(F)F)CC2)nn1)C(C)(C)C (configuration not stated)
Second: COc1ccc(NS(=O)(=O)c2cccc3c(N(C)C)cccc23)nn1
The melting point of the first is lower: 65 to 68 °C for the first, 125 to 127 °C for the second.

Compared with `O=C(O)c1cc(F)ccc1S`, `COCCOc1ccc([N+](=O)[O-])cc1F` is lower in melting point: 185 °C for the first, 62 to 63 °C for the second.

Compared with `CC(C)CCCC(C)CCOc1ccc2c(c1)[nH]c1ccccc12` (configuration not stated), `COc1ccc(C2NCCc3c2[nH]c2ccccc32)cc1F` (configuration not stated) is lower in melting point: 188 °C for the first, 68 °C for the second.

First: O=[N+]([O-])c1cc(Cl)c(N=C2NCCCN2)c(Cl)c1
Second: O=C(Cc1ccc(Cl)c(Cl)c1)N1CCN2CCCC[C@@H]21
The melting point of the first is higher: 265 °C for the first, 102 to 104 °C for the second.

Compared with `Cn1ccnc1CC1COc2ccccc2O1` (configuration not stated), `CCOC(=O)C1CCC(c2ccccc2)n2c(=O)n(CCCl)c(=O)n21` (configuration not stated) is lower in melting point: 158 to 160 °C for the first, 87 to 89 °C for the second.

First: Clc1nc(C(Cl)Cl)c(Cl)s1
Second: CCn1c(Oc2cccc(N)c2)nnc1[C@@H](C)NS(=O)(=O)c1ccc(Cl)c(Cl)c1
The melting point of the first is lower: 42 to 44 °C for the first, 142 to 145 °C for the second.

First: CCCNC(=S)NCCCCn1c(-c2ccccc2)nc2c(N)nc3ccccc3c21
Second: COc1ccn2nc(-c3ccccc3)c(-c3ccc(=O)n(C(C)C)n3)c2c1Br
The melting point of the first is lower: 113 to 116 °C for the first, 205 to 206 °C for the second.

Compared with `CC(C)NC1=NS(=O)(=O)c2ccc(S(C)(=O)=O)cc2N1`, `CCOP(C)(=O)CCNS(=O)(=O)c1ccc(C)cc1` (configuration not stated) is lower in melting point: > 300 °C for the first, 124 to 126 °C for the second.

First: COc1cccc(C#N)c1C
Second: COCOc1ccc(O)cc1OC
The melting point of the first is lower: 47 to 48 °C for the first, 70 to 72 °C for the second.

First: CCCCNC(=O)C1CCNCC1
Second: COC(=O)c1sc2c(c1O)CCCC2
The melting point of the first is higher: 75 to 79 °C for the first, 55 to 58 °C for the second.

Going from `COc1ccc(NC(N)=S)c(N2CCOCC2)c1` to `S=C(NC1CCCCC1)N1CCc2[nH]cnc2C1`, the melting point rises from 175 °C to 183 °C.

Compared with `C=CCNC(=O)C=C(C)N`, `NC(=O)C12CCCN(CCC1)C2` is higher in melting point: 143 to 144 °C for the first, 172 to 175 °C for the second.

First: Cc1cc(F)ccc1-c1nc(OCCO)nc2c1CNC(=O)N2c1c(F)cccc1F
Second: Cc1[nH]c2c(ccc3sc4ccccc4c32)c1C=O
The melting point of the first is lower: 172 to 175 °C for the first, 192 to 194 °C for the second.

`O=C1NC2(C(=O)CCl)C=CC1C2` (configuration not stated) and `CNS(=O)(=O)OCCOc1ccc(-n2ccnc2)cc1` cannot be ordered by melting point: 86 to 88 °C for the first, 85 to 88 °C for the second.
